# Results taken from publication PMC5656596, “Yucasin DF, a potent and persistent inhibitor of auxin biosynthesis in plants” (Scientific Reports, 2017).
# Columns and labels:
# AtYUC6 (YUC6) [1] = target: T1, AtYUC6 (YUC6) (Arabidopsis thaliana, UniProt Q8VZ59); test: competition with photoaffinity probe labelling; format: binding; conditions: active site
# T1 construct: purified recombinant
# T1 sequence (Q8VZ59 1-417): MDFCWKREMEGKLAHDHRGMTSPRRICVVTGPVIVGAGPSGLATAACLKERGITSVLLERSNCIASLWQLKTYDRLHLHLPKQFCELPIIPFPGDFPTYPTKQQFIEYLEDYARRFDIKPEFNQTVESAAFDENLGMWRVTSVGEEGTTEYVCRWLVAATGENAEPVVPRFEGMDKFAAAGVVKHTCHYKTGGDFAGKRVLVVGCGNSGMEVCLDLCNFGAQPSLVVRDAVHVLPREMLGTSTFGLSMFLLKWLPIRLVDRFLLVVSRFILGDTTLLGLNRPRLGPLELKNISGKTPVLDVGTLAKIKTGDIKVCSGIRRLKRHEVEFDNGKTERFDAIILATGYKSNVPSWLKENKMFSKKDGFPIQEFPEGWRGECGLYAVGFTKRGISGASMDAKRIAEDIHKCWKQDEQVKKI
# [2] = target: T2, AtYUC1 (AtYUC1-His, YUC1) (Arabidopsis thaliana, UniProt Q9SZY8); test: LC-MS/MS of IAA formed from IPA; format: biochemical; conditions: 20 µM IPA, 40 µM FAD, 1 mM NADPH, 10 mM Tris-HCl pH 7.5, 35 °C, 30 min
# T2 construct: recombinant His-tagged, pET-53-DEST, E. coli BL21 Star (DE3), TALON purified, tag kept
# T2 sequence (Q9SZY8 1-414): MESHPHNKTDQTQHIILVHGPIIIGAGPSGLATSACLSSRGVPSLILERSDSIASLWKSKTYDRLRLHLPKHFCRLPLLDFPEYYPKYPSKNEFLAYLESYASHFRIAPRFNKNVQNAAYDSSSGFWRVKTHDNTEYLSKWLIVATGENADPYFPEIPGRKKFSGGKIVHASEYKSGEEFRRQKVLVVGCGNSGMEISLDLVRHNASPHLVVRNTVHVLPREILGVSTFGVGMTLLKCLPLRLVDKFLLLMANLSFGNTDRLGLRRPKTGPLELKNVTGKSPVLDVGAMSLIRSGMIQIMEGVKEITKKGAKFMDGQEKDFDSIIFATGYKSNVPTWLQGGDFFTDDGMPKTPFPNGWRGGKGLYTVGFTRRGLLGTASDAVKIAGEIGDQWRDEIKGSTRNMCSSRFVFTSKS
# AtYUC6 (YUC6) [3] = target: T1, AtYUC6 (YUC6); test: photoaffinity labelling, Staudinger-Bertozzi ligation to fluorescent phosphine, SDS-PAGE; format: binding; conditions: 20 µM probe, 254 nm UV, on ice, 10 mM phosphate buffer; active site, competitive with IPA and PPA; covalent; labelled compound
compound,measurement,setting,value
O=C(O)C(=O)Cc1c[nH]c2ccccc12 [IPA],competition with photoaffinity probe labelling,AtYUC6 (YUC6) [1]; 200 µM IPA against 20 µM probe,The fluorescent signal disappeared when the probe was photoactivated in the presence of the substrates
O=C(O)C(=O)Cc1ccccc1 [PPA],competition with photoaffinity probe labelling,AtYUC6 (YUC6) [1]; 200 µM PPA against 20 µM probe,The fluorescent signal disappeared when the probe was photoactivated in the presence of the substrates
"Fc1cccc(F)c1-c1n[nH]c(=S)[nH]1 [compound 1, 5-[2,6-difluorophenyl]-2,4-dihydro-[1,2,4]-triazole-3-thione]",enzyme activity at 1 or 10 μM inhibitor,[2],we measured the inhibitory activity of YDF on the recombinant AtYUC1 enzyme
[N-]=[N+]=NCc1cc(N=[N+]=[N-])cc(-c2n[nH]c(=S)[nH]2)c1 [photoaffinity yucasin probe],"photoaffinity labelling, Staudinger-Bertozzi ligation to fluorescent phosphine,",AtYUC6 (YUC6) [3],A fluorescent signal from the photoaffinity-labeled probe of YUC6 was detected
"S=c1[nH]nc(-c2ccc(Cl)cc2)[nH]1 [yucasin, 5-[4-chlorophenyl]-2,4-dihydro-[1,2,4]-triazole-3-thione]",enzyme activity at 1 or 10 μM inhibitor,[2],Yucasin inhibited the recombinant YUC1 enzyme activity more potent than YDF
